Source: ChEMBL document CHEMBL3046798 (J Agric Food Chem, 2010)
Values after ≈ are worked out from the molar mass of the structure shown.

Experiments:
Meloidogyne incognita [1] = assay: Nematicidal activity against root-knot nematode Meloidogyne incognita J2 (root-knot nematode) infested tomato plants plots assessed as reduction in nematode population measured 55 days post dose following field application at 1 to 2 kg of active ingredient/hectare; format: functional; parameters: scale not given: the % may be the effect or the level left
[2] = Drug level in Solanum lycopersicum (tomato) green seeds measured 90 days post dose following field application at 1 kg of active ingredient/hectare
[3] = Cmax in Solanum lycopersicum (tomato) shoots measured 30 days post dose following field application at 1 and 2 kg of active ingredient/hectare; format: ADME, Shoot; conditions: other: field application
[4] = Drug level in Solanum lycopersicum (tomato) green seeds measured 120 days post dose following field application at 1 kg of active ingredient/hectare
Root [5] = assay: Drug translocation in Solanum lycopersicum (tomato) roots assessed as mean drug level measured post dose following field application at 1 and 2 kg of active ingredient/hectare
[6] = Drug level in Solanum lycopersicum (tomato) green seeds measured 90 days post dose following field application at 2 kg of active ingredient/hectare
[7] = Drug level in Cicer arietinum (chickpea) green seeds measured 90 days post dose following field application at 1 kg of active ingredient/hectare
[8] = Drug absorption in Solanum lycopersicum (tomato) roots measured 30 days post dose following field application at 1 and 2 kg of active ingredient/hectare
[9] = Drug level in Solanum lycopersicum (tomato) green seeds measured 100 days post dose following field application at 1 kg of active ingredient/hectare
Meloidogyne incognita [10] = assay: Nematicidal activity against root-knot nematode Meloidogyne incognita J2 (root-knot nematode) infested chickpea plants plots assessed as reduction in nematode population measured 55 days post dose following field application at 1 to 2 kg of active ingredient/hectare; format: functional; parameters: scale not given: the % may be the effect or the level left
[11] = Toxicity in Rattus norvegicus (rat); conditions: in vivo
[12] = Drug level in Solanum lycopersicum (tomato) green seeds measured 100 days post dose following field application at 2 kg of active ingredient/hectare
Meloidogyne incognita [13] = assay: Nematicidal activity against root-knot nematode Meloidogyne incognita J2 (root-knot nematode) infested chickpea plants plots assessed as reduction in nematode population measured 110 days post dose following field application at 1 to 2 kg of active ingredient/hectare; format: functional; parameters: scale not given: the % may be the effect or the level left
[14] = Drug level in Cicer arietinum (chickpea) green seeds measured 100 days post dose following field application at 1 kg of active ingredient/hectare
[15] = Cmax in Cicer arietinum (chickpea) shoots measured 15 days post dose following field application at 1 and 2 kg of active ingredient/hectare; format: ADME, Shoot; conditions: other: field application
[16] = Drug level in Cicer arietinum (chickpea) green seeds measured 100 days post dose following field application at 2 kg of active ingredient/hectare
[17] = Drug level in Solanum lycopersicum (tomato) green seeds measured 120 days post dose following field application at 2 kg of active ingredient/hectare
Root [18] = assay: Drug absorption in Solanum lycopersicum (tomato) roots assessed as mean drug level measured post dose following field application at 1 and 2 kg of active ingredient/hectare
[19] = Drug level in Cicer arietinum (chickpea) green seeds measured 90 days post dose following field application at 2 kg of active ingredient/hectare
Meloidogyne incognita [20] = assay: Nematicidal activity against root-knot nematode Meloidogyne incognita J2 (root-knot nematode) infested tomato plants plots assessed as reduction in nematode population measured 110 days post dose following field application at 1 to 2 kg of active ingredient/hectare; format: functional; parameters: scale not given: the % may be the effect or the level left
Rotylenchulus reniformis [21] = assay: Nematicidal activity against Rotylenchulus reniformis (reniform nematode) infested tomato plants plots assessed as reduction in nematode population measured 110 days post dose following field application at 1 to 2 kg of active ingredient/hectare; format: functional; parameters: scale not given: the % may be the effect or the level left
Rotylenchulus reniformis [22] = assay: Nematicidal activity against Rotylenchulus reniformis (reniform nematode) infested in tomato plants plots assessed as reduction in nematode population measured 55 days post dose following field application at 1 to 2 kg of active ingredient/hectare; format: functional; parameters: scale not given: the % may be the effect or the level left
Rotylenchulus reniformis [23] = assay: Nematicidal activity against Rotylenchulus reniformis (reniform nematode) infested chickpea plants plots assessed as reduction in nematode population measured 55 days post dose following field application at 1 to 2 kg of active ingredient/hectare; format: functional; parameters: scale not given: the % may be the effect or the level left
Rotylenchulus reniformis [24] = assay: Nematicidal activity against Rotylenchulus reniformis (reniform nematode) infested chickpea plants plots assessed as reduction in nematode population measured 110 days post dose following field application at 1 to 2 kg of active ingredient/hectare; format: functional; parameters: scale not given: the % may be the effect or the level left
in vivo [25] = conditions: solanum lycopersicum
[26] = Drug level in Cicer arietinum (chickpea) roots measured 15 days post dose following field application at 1 and 2 kg of active ingredient/hectare; format: ADME, Root; conditions: other: field application, read-out: Drug uptake
[27] = Cmax in Cicer arietinum (chickpea) shoots measured 45 days post dose following field application at 1 and 2 kg of active ingredient/hectare; format: ADME, Shoot; conditions: other: field application
[28] = Drug level in Cicer arietinum (chickpea) green seeds measured 120 days post dose following field application at 2 kg of active ingredient/hectare
[29] = Drug level in Cicer arietinum (chickpea) green seeds measured 120 days post dose following field application at 1 kg of active ingredient/hectare
[30] = Drug level in Solanum lycopersicum (tomato) roots measured 15 days post dose following field application at 1 and 2 kg of active ingredient/hectare; format: ADME, Root; conditions: other: field application, read-out: Drug uptake
[31] = Drug absorption in Cicer arietinum (chickpea) roots measured 45 days post dose following field application at 1 and 2 kg of active ingredient/hectare; conditions: Root
in vivo [32] = conditions: cicer arietinum, Shoot

CCOP(=O)(SC(C)CC)SC(C)CC (stereo unspecified) [CADUSAFOS]
Activity (Meloidogyne incognita [1]): 57%
concentration at 2160 h ([2]; green seeds): 21 ng/g
Cmax [3]: 440 ng/g
concentration at 2880 h [4]: 2 ng/g
Drug transport (Root [5]): 0.25 µg/g
concentration at 2160 h ([6]; green seeds): 40 ng/g
concentration at 2160 h ([7]; green seeds): 9 ng/g
concentration at 720 h ([8]; roots, other: field application): 3230 ng/g
concentration at 2400 h [9]: 6 ng/g
Activity (Meloidogyne incognita [10]): 66%
LD50 [11]: 37.1 mg/kg
concentration at 2400 h [12]: 10 ng/g
Activity (Meloidogyne incognita [13]): 79%
concentration at 2400 h ([14]; green seeds): 3 ng/g
Cmax [15]: 340 ng/g
concentration at 2400 h ([16]; green seeds): 5 ng/g
concentration at 2880 h [17]: 3 ng/g
solubility (physchem; buffer): 248 µg/mL (≈ 917 µM)
Drug absorption (Root [18]): 2.18 µg/g
concentration at 2160 h ([19]; green seeds): 16 ng/g
Activity (Meloidogyne incognita [20]): 60%
Activity (Rotylenchulus reniformis [21]): 83%
Activity (Rotylenchulus reniformis [22]): 39%
Activity (Rotylenchulus reniformis [23]): 49%
Activity (Rotylenchulus reniformis [24]): 45%

CNC(=O)Oc1cccc2c1OC(C)(C)C2 [CARBOFURAN]
LD50 [11]: 8 mg/kg
solubility (physchem; buffer): 700 µg/mL (≈ 3160 µM)

CCCCN(CCCC)SN(C)C(=O)Oc1cccc2c1OC(C)(C)C2 [CARBOSULFAN]
Activity (Meloidogyne incognita [1]): 52%
Cmax at 1080 h (in vivo [25]; shoots, other: field application): 31600 ng/g
Drug transport (Root [5]): 9.52 µg/g
concentration at 360 h [26]: 530 ng/g
Activity (Meloidogyne incognita [10]): 33%
LD50 [11]: 209 mg/kg
Activity (Meloidogyne incognita [13]): 15%
Cmax [27]: 24800 ng/g
Drug absorption (Root [18]): 0.36 µg/g
Activity (Meloidogyne incognita [20]): 45%
Activity (Rotylenchulus reniformis [21]): 59%
Activity (Rotylenchulus reniformis [22]): 23%
Activity (Rotylenchulus reniformis [23]): 37%
Activity (Rotylenchulus reniformis [24]): 23%

CCOP(=O)(NC(C)C)Oc1ccc(SC)c(C)c1 (stereo unspecified) [PHENAMIPHOS]
LD50 [11]: 16 mg/kg

CCOP(=S)(OCC)SCSCC [PHORATE]
Activity (Meloidogyne incognita [1]): 45%
concentration at 2160 h ([2]; green seeds): 14 ng/g
concentration at 2880 h [28]: 6 ng/g
concentration at 2880 h [4]: 3 ng/g
Drug transport (Root [5]): 0.41 µg/g
concentration at 360 h [26]: 2310 ng/g
concentration at 2160 h ([6]; green seeds): 22 ng/g
concentration at 2880 h [29]: 3 ng/g
concentration at 2160 h ([7]; green seeds): 20 ng/g
concentration at 2400 h [9]: 10 ng/g
Activity (Meloidogyne incognita [10]): 44%
LD50 [11]: 3.2 mg/kg
concentration at 2400 h [12]: 14 ng/g
Activity (Meloidogyne incognita [13]): 1%
concentration at 2400 h ([14]; green seeds): 8 ng/g
concentration at 2400 h ([16]; green seeds): 19 ng/g
concentration at 2880 h [17]: 4 ng/g
Cmax [27]: 680 ng/g
solubility (physchem; water): 50 µg/mL (≈ 192 µM)
Drug absorption (Root [18]): 1.45 µg/g
concentration at 2160 h ([19]; green seeds): 56 ng/g
concentration at 360 h [30]: 1690 ng/g
Activity (Meloidogyne incognita [20]): 17%
Activity (Rotylenchulus reniformis [21]): 45%
Activity (Rotylenchulus reniformis [22]): 36%
Activity (Rotylenchulus reniformis [23]): 28%
Activity (Rotylenchulus reniformis [24]): 0.9%

CCOP(=S)(OCC)Oc1ncn(-c2ccccc2)n1 [TRIAZOPHOS]
Activity (Meloidogyne incognita [1]): 55%
concentration at 2160 h [2]: 2 ng/g
Cmax at 1080 h (in vivo [25]; Shoot): 630 ng/g
Drug transport (Root [5]; Root): 0.14 µg/g
concentration at 2160 h [6]: 4 ng/g
concentration at 2160 h [7]: 11 ng/g
concentration at 720 h ([8]; Root): 7220 ng/g
concentration at 1080 h [31]: 1720 ng/g
Activity (Meloidogyne incognita [10]): 63%
LD50 [11]: 68 mg/kg
Activity (Meloidogyne incognita [13]): 44%
concentration at 2400 h [14]: 4 ng/g
concentration at 2400 h [16]: 7 ng/g
solubility (physchem; buffer): 30 µg/mL (≈ 95.7 µM)
Drug absorption (Root [18]; Root): 2.77 µg/g
concentration at 2160 h [19]: 18 ng/g
Activity (Meloidogyne incognita [20]): 38%
Activity (Rotylenchulus reniformis [21]): 31%
Activity (Rotylenchulus reniformis [22]): 30%
Activity (Rotylenchulus reniformis [23]): 38%
Cmax at 720 h (in vivo [32]): 250 ng/g
Activity (Rotylenchulus reniformis [24]): 30%
